Like-named read-outs stand apart in the source and are kept apart here.
What was measured:
pressor response to AII = test: Assay C: In vivo intragastric pressor assay response for AII antagonists; design: species or system Sprague-Dawley rats; details: in vivo pressor response; for inhibition in vivo at 10 mg/kg / inhibition in vivo at 30 mg/kg / inhibition in vivo at 3 mg/kg / inhibition in vivo at 100 mg/kg: Rattus norvegicus; for inhibition in vivo at 30 mg/kg: read-out: Assay C Inhibition
rabbit aortic rings = test: Assay B: In vitro vascular smooth muscle response for AII (antagonist activity, pA2); assay type: cell-based; details: Oryctolagus cuniculus, two values in a cell = two determinations
Outline: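 Endothelium-denuded thoracic aortic rings from male New Zealand white rabbits, in oxygenated Krebs at 37° C. under ~1 g tension, gave isometric AII contraction curves (3×10^−10 to 1×10^−5 M).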

[1] = target: angiotensin II AT1 receptor; test: Assay A: Angiotensin II binding activity, rat uterine membrane preparation, 125I-AII displacement
[2] = intraduodenal, 100 mg/kg intraduodenally
[3] = intraduodenal, 30 mg/kg intraduodenally
[4] = intraduodenal, 10 mg/kg intraduodenally

SMILES	Kb (rabbit aortic rings) [nM]	IC50 [1] [nM]	inhibition in vivo at 3 mg/kg (pressor response to AII; po, 3 mg/kg intragastrically) [%]	Assay C Duration (pressor response to AII; 3 mg/kg intragastrically) [min]	further results
C[C@]12CCC(=O)C=C1[C@@H]1CC1[C@H]1[C@@H]3CC[C@@]4(CCC(=O)O4)[C@@]3(C)CC3O[C@]312 (some centres unmarked) [Compound 3]	2	5.4	–	–	inhibition in vivo at 10 mg/kg (pressor response to AII; po, 10 mg/kg intragastrically): 50%; inhibition in vivo at 30 mg/kg (pressor response to AII; po, 30 mg/kg intragastrically): 100%; Assay C Duration (pressor response to AII; 10 mg/kg intragastrically): >180 min; Assay C Duration (pressor response to AII; 30 mg/kg intragastrically): 200^+ min.
CCCCc1nc(-c2ccccc2C)n(Cc2ccc(-c3ccccc3-c3nnn[nH]3)nc2)n1 [Compound 273]	2.95	9.8	25	>180	–
C[C@]12C=CC(=O)C=C1[C@@H]1CC1[C@H]1[C@@H]3CC[C@@]4(CCC(=O)O4)[C@@]3(C)CC3O[C@]312 (some centres unmarked) [Compound 6]	282	1300	–	–	inhibition in vivo at 100 mg/kg (pressor response to AII; [2]): 90%; Assay C Duration (pressor response to AII; 100 mg/kg intraduodenally): 120 min
CCCCc1nn(CC2CC2)c(=O)n1Cc1ccc(-c2ccccc2-c2nn[nH]n2)cc1 [Compound 115]	6.31	11	40	>240	–
CCCCc1nc(-c2ccccc2C(C)C)n(Cc2ccc(-c3ccccc3-c3nnn[nH]3)nc2)n1 [Compound 275]	0.851	6.3	40	>180	–
CCCCc1nc(Cl)n(Cc2ccc(-c3ccccc3-c3nnn[nH]3)cc2)n1 [Compound 20]	1290	78000	–	–	inhibition in vivo at 100 mg/kg (pressor response to AII; [2]): 10%; Assay C Duration (pressor response to AII; 100 mg/kg intraduodenally): 45 min
CCCCn1cc(C2CCCC2)n(Cc2ccc(-c3ccccc3-c3nnn[nH]3)nc2)c1=O [Compound 203]	3.72	9.2	50	>180	–
CCCCc1ncn(Cc2ccc(-c3ccccc3C(=O)O)cc2)n1 [Compound 30]	18.6	22	–	–	inhibition in vivo at 30 mg/kg (pressor response to AII; [3]): 50%; Assay C Duration (pressor response to AII; 30 mg/kg intraduodenally): >180 min
CCCCn1cc(C2CCCCC2)n(Cc2ccc(-c3ccccc3-c3nnn[nH]3)nc2)c1=O [Compound 202]	1.62	12	65	>180	–
CCCCc1cn(C)c(=O)n1Cc1ccc(-c2ccccc2-c2nnn[nH]2)nc1 [Compound 205]	0.724	20	40	>180	–
CCCCCn1cc(CCCC)n(Cc2ccc(-c3ccccc3-c3nnn[nH]3)nc2)c1=O [Compound 210]	4.37	3.6	15	180	–
CCCCc1nc(-c2ccccc2C(C)C)nn1Cc1ccc(-c2ccccc2-c2nnn[nH]2)nc1 [Compound 274]	0.871	13	35	>180	–
CCCCc1nn(CC(OCC(=O)OCC)c2ccccc2)c(=O)n1Cc1ccc(-c2ccccc2-c2nn[nH]n2)cc1 (centres unmarked) [Compound 118]	0.617	37	–	–	inhibition in vivo at 10 mg/kg (pressor response to AII; [4]): 70%; Assay C Duration (pressor response to AII; 10 mg/kg intraduodenally): 120 min
CCCCc1nc(CCC)n(Cc2ccc(-c3ccccc3-c3nnn[nH]3)cc2)n1 [Compound 26]	0.148	3.2	–	–	inhibition in vivo at 10 mg/kg (pressor response to AII; po, 10 mg/kg intragastrically): 50%; Assay C Duration (pressor response to AII; 10 mg/kg intragastrically): >180 min
CCCn1cc(CC(C)C)n(Cc2ccc(-c3ccccc3-c3nnn[nH]3)nc2)c1=O [Compound 198]	1.74	7.6	35	>180	–
CCCCc1c(C)n(CCCC)c(=O)n1Cc1ccc(-c2ccccc2-c2nnn[nH]2)cc1 [Compound 148]	1580	0.87	–	–	inhibition in vivo at 3 mg/kg (pressor response to AII; intraduodenal, 3 mg/kg intraduodenally): 92%; Assay C Duration (pressor response to AII; 3 mg/kg intraduodenally): 20 to 30 min

SMILES	Kb (rabbit aortic rings) [nM]	IC50 [1] [nM]	inhibition in vivo at 3 mg/kg (pressor response to AII; po, 3 mg/kg intragastrically) [%]	Assay C Duration (pressor response to AII; 3 mg/kg intragastrically) [min]	further results
CCCCc1nn(CCCCC(=O)OC)c(=O)n1Cc1ccc(-c2ccccc2-c2nn[nH]n2)cc1 [Compound 111]	1	45	–	–	inhibition in vivo at 30 mg/kg (pressor response to AII; [3]): 87%; Assay C Duration (pressor response to AII; 30 mg/kg intraduodenally): 160 min
CCCCc1cn(CCC(C)C)c(=O)n1Cc1ccc(-c2ccccc2-c2nnn[nH]2)nc1 [Compound 209]	0.389	5	25	>180	–
CCCCc1cn(C2CCCCC2(C)C)c(=O)n1Cc1ccc(-c2ccccc2-c2nnn[nH]2)nc1 (centres unmarked) [Compound 248]	20.9	20	10	–	–
CCCCc1nn(CC(OCc2ccccc2)c2ccccc2)c(=O)n1Cc1ccc(-c2ccccc2-c2nn[nH]n2)cc1 (centres unmarked) [Compound 108]	5010	720	–	–	inhibition in vivo at 100 mg/kg (pressor response to AII; [2]): 45%; Assay C Duration (pressor response to AII; 100 mg/kg intraduodenally): 90 min
COC(=O)CC[C@]1(O)CC[C@H]2[C@@H]3C4CC4C4=CC(=O)CC[C@]4(C)[C@]34OC4C[C@@]21C (some centres unmarked) [Compound 7]	9.77	84	–	–	inhibition in vivo at 30 mg/kg (pressor response to AII; [3]): 90%; Assay C Duration (pressor response to AII; 30 mg/kg intraduodenally): 130 min
CCCCc1nc(CCCC)n(Cc2ccc(-c3cnccc3-c3nnn[nH]3)cc2)n1 [Compound 255]	24.5	12	20	>180	–
CCCn1nc(C(OC)OC)nc1Cc1ccc(-c2ccccc2-c2nnn[nH]2)nc1 [Compound 185]	1.51	6.5	50	>180	–
CCCCc1cn(-c2c(Cl)cccc2Cl)c(=O)n1Cc1ccc(-c2ccccc2-c2nnn[nH]2)nc1 [Compound 232]	2.57	4.4	70	>180	–
CCCCc1nc2c(O)nnc(O)c2n1Cc1ccc(-c2ccccc2C(=O)O)cc1 [Compound 120]	0.891	25	–	–	inhibition in vivo at 10 mg/kg (pressor response to AII; po, 10 mg/kg intragastrically): 80%; Assay C Duration (pressor response to AII; 10 mg/kg intragastrically): 240 min
CCCCc1nc(-c2ccccc2Cl)nn1Cc1ccc(-c2ccccc2-c2nnn[nH]2)nc1 [Compound 278]	3.24	30	50	>180	–
CCCCCc1cn(CCCC)c(=O)n1Cc1ccc(-c2ccccc2-c2nnn[nH]2)nc1 [Compound 201]	1.66	17	10	180	–
CCCCc1cn(C(C)C)c(=O)n1Cc1ccc(-c2ccccc2-c2nnn[nH]2)nc1 [Compound 211]	1.82	18	35	>180	–
CCCCc1nn(CC(O)c2cc(OC)ccc2OC)c(=O)n1Cc1ccc(-c2ccccc2-c2nn[nH]n2)cc1 (centres unmarked) [Compound 109]	50.1	250	–	–	inhibition in vivo at 30 mg/kg (pressor response to AII; [3]): 50%; Assay C Duration (pressor response to AII; 30 mg/kg intraduodenally): 30 min
COC(=O)CC[C@]1(O)CC[C@H]2[C@@H]3[C@H](C(=O)OC)CC4=CC(=O)CC[C@]4(C)C34O[C@@H]4C[C@@]21C (some centres unmarked) [Compound 2]	42.7	95	–	–	inhibition in vivo at 10 mg/kg (pressor response to AII; [4]): 95%; inhibition in vivo at 30 mg/kg (pressor response to AII; [3]): 98%; Assay C Duration (pressor response to AII; 10 mg/kg intraduodenally): 60 min; Assay C Duration (pressor response to AII; 30 mg/kg intraduodenally): 90 to 120 min
CCCCc1nc(Cl)c(Cl)n1Cc1ccc(-n2cccc2C(=O)O)cc1 [Compound 158]	5.89	54	30	>180	–
CCCCc1cn([C@H]2[C@H](C)CCC[C@@H]2C)c(=O)n1Cc1ccc(-c2ccccc2-c2nnn[nH]2)nc1 [Compound 247]	5.5	9.4	20	180	–
